Target: T1, renal dehydropeptidase I (renal dipeptidase, E.C. 3.4.13.11) (Sus scrofa, UniProt P22412)
T1 construct: solubilized preparation of […] isolated from hog kidneys; from tissue; host or cells: hog kidney
T1 sequence (P22412 17-409): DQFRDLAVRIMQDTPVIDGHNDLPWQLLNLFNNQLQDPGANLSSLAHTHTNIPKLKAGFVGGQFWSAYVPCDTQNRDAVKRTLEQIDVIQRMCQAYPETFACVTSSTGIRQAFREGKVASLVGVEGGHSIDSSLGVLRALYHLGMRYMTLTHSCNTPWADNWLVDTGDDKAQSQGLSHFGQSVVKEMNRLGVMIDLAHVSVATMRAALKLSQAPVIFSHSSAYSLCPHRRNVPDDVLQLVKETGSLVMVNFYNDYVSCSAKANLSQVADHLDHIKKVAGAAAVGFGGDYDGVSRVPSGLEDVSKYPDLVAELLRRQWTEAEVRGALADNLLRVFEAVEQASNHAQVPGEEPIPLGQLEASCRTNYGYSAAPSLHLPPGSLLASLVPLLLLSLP
Assay: In vitro screen: inhibition of hydrolysis of glycyldehydrophenylalanine (GDP) by solubilized renal dipeptidase
Type: biochemical
Conditions: Table I, structure II; hog kidney enzyme, GDP 0.05 mM, pH 7.1, 37° C., 275 nm
Procedure: Renal dehydropeptidase activity was first described by M. Bergmann and H. Schleich, Z. Physiol. Chem., 205, 65 (1932); see also B. J. Campbell et al., Biochem. Biophys. Acta, 118, 371 (1966) and references therein.
This measured the ability of compounds to inhibit hydrolysis of glycyldehydrophenylalanine (GDP) by a solubilized preparation of […] isolated from hog kidneys. The procedure is as follows: to a 1 ml system containing 50 mM "MOPS" (3-(N-morpholino)-propanesulfonic acid) buffer, pH 7.1 is added 5 mg of lyophilized enzyme, and the test compound at a final concentration of 0.1 mM. After a five minute incubation of 37° C., GDP is added to a final concentration of 0.05 mM. Incubation is continued for 10 minutes, at 37° C. and hydrolysis of GDP is measured by the change in optical density with time at 275 nm. Inhibition of the enzyme is gauged by comparison to a standard run containing no inhibitor and is expressed as the inhibitor binding constant K. This is the concentration of the inhibitor which achieves 50% inhibition of enzyme.

| Ki | SMILES |
| --- | --- |
| 0.021 µM | CC(C)/C=C(/CP(=O)(O)C(N)CC1CCCCC1)C(=O)O (centres unmarked) |
| 0.0021 µM | CC(C)/C=C(\CP(=O)(O)C(N)CC1CCCCC1)C(=O)O (centres unmarked) |

Source: US5145990A, “Phosphorous containing dhp enzyme inhibitors” (Merck & Co., Inc., priority 1991, dated 1992)
